Data from paper PMC9503459, “Antifungal Activity, Structural Stability, and Immunomodulatory Effects on Human Immune Cells of Defensin from the Lentil Lens culinaris” (Membranes, 2022).
pIC50: −log10 of the molar value. No end group written: not given here.

How the values were obtained:
[1] = system: clinical isolate of Candida albicans (v47a3); test: Antifungal microdilution assay, C. albicans; assay type: cell-based; conditions: 24 h; for inhibition of the growth: C. albicans
Method: The clinical isolates of Candida albicans (v47a3), C. krusei (225/2) and C. glabrata (252/2) were collected from patients with human immunodeficiency virus (HIV) infection and provided by G.N. Gabrichevsky Research Institute for Epidemiology and Microbiology (Moscow, Russia). Strains stocks were kept at −70 ℃ in 10% nonfat milk with 10% glycerol.
Antifungal susceptibility tests were performed by the microdilution method using 96-well microplates. Yeast cells in stock were inoculated onto modified YPD (yeast extract 5 g/L, peptone 10 g/L, glucose 10 g/L) agar plates, and incubated for 24 h at 37 ℃. After replating, cells were cultured in modified YPD broth at 37 ℃ to optical density 1.0 at 540 nm. Further, yeast cells in modified YPD broth at concentration of 5 × 10^4 cells/mL were mixed with equal volumes of serial two-fold dilutions of the peptide in water which started at the highest peptide concentration of 200 µM. Final peptide concentrations in the wells were 100, 50, 25, 12.5, 6.25, 3.125, and 1.56 μM. Controls without defensin were also tested. Plates were incubated at 30 ℃ during 24 h. Yeast growth was estimated using inverted microscope as well as by measuring the optical density at 540 nm. Percentage of growth inhibition was defined as: growth inhibition (%) = ((Acontrol − Asample)/Acontrol) × 100%. All of the experiments were performed twice in triplicate. The t-test was performed to study the statistical difference (p-value) between the means of controls and samples with different peptide concentrations. The experiment with lentil Lens culinaris lipid transfer protein Lc-LTP2 was carried out for comparison.

[2] = system: PBMCs; test: Resazurin-based cytotoxicity assay, PBMCs; assay type: cell-based, human; conditions: 50 μM peptide, 24 h
Method: The cytotoxic properties of Lc-def and melittin as a control were investigated also by resazurin-based cell cytotoxicity assay. PBMCs and THP-1 cells were seeded in 96-well plates at 2 × 10^6 and 1 × 10^6 cells per well, respectively, in RPMI-1640 supplemented with 10% FBS, and kept in CO2-incubator. After 24 h serial two-fold dilutions of compounds in culture medium were then added to final concentrations from 0.2 to 50 μM. After 24 h of incubation with the peptides, resazurin (Sigma) was added at a final concentration of 0.7 mM, and the plates were incubated overnight (16 h). Fluorescent resorufin was registered using 535/595 filter at PlateReader AF2200 (Eppendorf, Hamburg, Germany). Untreated corresponding cells were used as negative controls. The cell viability was calculated as: cell viability (%) = (Fsample/Fcontrol) × 100%. The experiment was carried out twice in triplicate.

[3] = system: proteolytic enzymes of Candida albicans; test: Influence of defensins on degradation of proteins by C. albicans lysate; assay type: biochemical; conditions: SDS-PAGE
Method: For study of Lc-def sensitivity to the clinical isolate of C. albicans, lysates of yeast cells in different concentration and pH were used basically as previously described for rhesus macaque θ-defensin 1 [22]. Cells were inoculated onto modified YPD medium and grown at 37 ℃ for 48 h before reaching the stationary phase of growth. Cells were harvested by centrifugation, washed two times in sterile phosphate buffered saline (PBS), pH 7.2, or sterile 40 mM sodium acetate, pH 4.0, and resuspended in the corresponding buffer to final concentrations of 1 × 10^9 cells/mL or 1 × 10^3 cells/mL. Two freeze-thaw cycles in liquid nitrogen were used for cell disruption, and supernatants were collected following centrifugation. Supernatants (12.5 μL) were mixed with water solutions (37.5 μL) of Lc-def, α-casein, Psd1, or LL-37 in concentration of 0.67 mg/mL and incubated at 37 ℃ for 72 or 24 h in the case of high or low cell concentration, respectively. To study the possible influence of Lc-def and Psd1 on the degradation process, supernatants (12.5 μL) were mixed with both α-casein or LL-37 in concentration of 1 mg/mL (25 μL) and Lc-def or Psd1 in concentration of 2 mg/mL (12.5 μL). As negative controls, α-casein and peptides were mixed with buffers as well as supernatants were mixed with water without the proteins. The samples were mixed with sample buffer without β-mercaptoethanol (BME), heated at 100 ℃ for 2 min, and analyzed by sodium dodecyl sulfate polyacrylamide gel electrophoresis (SDS-PAGE). Some independent experiments were performed in each case.

[4] = system: Gram-positive or Gram-negative bacteria; conditions: cited from earlier work
[5] = C. albicans lysate 10^3 cells/mL, pH 7.2, up to 24 h

## Lc-def: defensin from lentil Lens culinaris seeds (UniProt:B3F051), recombinant, overexpressed in Escherichia coli (KTCENLSDSFKGPCIPDGNCNKHCKEKEHLLSGRCRDDFRCWCTRNC; disulfide (positions not given here); ends not checked; also: disulfide bonds present, pairing not given here; UniProt B3F051 28-74, looked up)
[1]; C. albicans clinical isolate, microdilution, modified YPD, 30 °C, OD540, twice in triplicate, read-out: concentration causing 50% growth inhibition
  pIC50: 4.30 to 4.60
[1]; 50 μM peptide
  inhibition of the growth: approximately 80%
[1]; 100 μM peptide
  inhibition of the growth: < 100%
[2]
  cell viability: 100%
[3]; [5]
  influence on LL-37 degradation: did not decrease LL-37 degradation
  influence on the rate of α-casein degradation: decreased the rate of α-casein degradation
[3]; C. albicans lysate 10^9 cells/mL
  influence on degradation of the major protein of C. albicans: decrease in degradation
[4]
  effect on growth of bacteria: did not affect the growth
